Measured values published in patent publication US10703748B2, “Diazanaphthalen-3-yl carboxamides and preparation and use thereof” (Samumed, LLC, priority 2017, dated 2020).

Tests used:
[1] = system: Wnt-responsive Sp5-Luc reporter in SW480 colon carcinoma cells; experiment: Screening assay for Wnt activity (Sp5-Luc reporter gene assay); conditions: Homo sapiens; for EC50: SW480; for inhibition at 10 µM: SW480, read-out: percent inhibition at 10 μM
[2] = system: α-smooth muscle actin (aSMA) positive LL29 cells; experiment: Inhibition of the fibrotic process: αSMA staining in TGF-β1 treated LL29 fibroblasts from IPF patients; conditions: Homo sapiens, Fibroblast; for EC50: 96 h
GSK3β kinase = GSK3β kinase (Homo sapiens, UniProt P49841); experiment: GSK3β kinase activity (Ser/Thr 09 peptide Z-lyte FRET assay); type: biochemical; conditions: recombinant kinase, 46 μM ATP, one hour at room temperature; read-out: EC50
GSK3β kinase, sequence (P49841 whole entry): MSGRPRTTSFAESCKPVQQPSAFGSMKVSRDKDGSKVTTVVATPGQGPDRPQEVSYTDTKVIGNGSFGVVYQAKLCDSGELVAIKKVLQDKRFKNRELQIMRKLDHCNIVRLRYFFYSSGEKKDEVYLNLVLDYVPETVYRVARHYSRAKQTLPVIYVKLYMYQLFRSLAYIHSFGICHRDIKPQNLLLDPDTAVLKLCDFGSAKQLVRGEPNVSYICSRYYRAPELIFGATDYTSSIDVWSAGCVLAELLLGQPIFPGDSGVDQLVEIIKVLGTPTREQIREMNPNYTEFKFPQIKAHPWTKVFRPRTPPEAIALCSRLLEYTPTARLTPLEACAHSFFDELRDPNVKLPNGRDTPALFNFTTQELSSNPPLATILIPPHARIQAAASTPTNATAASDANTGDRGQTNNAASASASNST

[3] = system: secreted cytokines TNFα, IL-6 and KC-GRO; experiment: Secreted cytokines in Lipopolysaccharide-stimulated BV-2 cells (Table 9 does not say which cytokine); type: cell-based, mouse; conditions: Mus musculus, BV-2, 5 h; read-out: EC50
Method: BV-2 cells (mouse microglial cells) were cultured in 1:1 DMEM medium supplemented with 10% FBS, and 1% penicillin/streptomycin.
BV-2 cells are plated at 35,000 cells/well in a volume of 100 μl for at least 4 hours before compounds are added. […] Compounds were added to cells overnight. […] Supernatant is removed and saved for further cytokine detection. The original plates with seeded cells were tested for cytotoxicity by measure of adenosine triphosphate (ATP) release by adding CellTiter-Glo® diluted 1:4 in distilled water (G7573, Promega) and transferring lysed cells to a completely black 96-well plate to be read with the Cytation3. Supernatant was then diluted 1:2 with a diluent from V-PLEX cytokine Kit and directly tested for the secreted cytokines TNFα, IL-6 and KC-GRO using electrochemiluminescence (Meso Scale Discovery). The standard curve for each cytokine was used to convert the electrochemiluminescent signal into pg of protein per mL.

IL-6 = IL-6 inhibition in LPS-stimulated human peripheral blood mononuclear cells (HTRF); conditions: Homo sapiens, PBMC; for EC50: 22 h; for inhibition at 10 µM: read-out: percentage in parentheses after EC50 >10
Method: Each compound was dissolved in DMSO (Catalog # D8418-100 ml, Sigma-Aldrich, St. Louis, Mo.) as a 10 mM stock and used to prepare compound source plates. […] After 22 hour incubation, a mixture of anti-IL6 XL665 and anti-IL-6 Cryptate diluted in reconstitution buffer (Catalog #62IL6PEC, Cisbio Inc., Bedford, Mass.) was added to each well. […] All samples were processed in duplicate. […] EC50 was determined using software generated by Dotmatics Limited (Windhill Bishops Stortford Herts, UK) using the Levenberg-Marquardt 4 parameter fitting procedure with finite different gradients.

DYRK1A kinase = DYRK1A kinase (Homo sapiens, UniProt Q13627); experiment: DYRK1A kinase activity (Ser/Thr 18 peptide Z-lyte FRET assay); type: biochemical; conditions: recombinant DYRK1A, 30 μM ATP, one hour at room temperature;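 also: kinase activity read as coumarin/fluorescein emission ratio after development step, with unphosphorylated and phosphorylated peptide forms setting 0% and 100% controls, values from dose-response curves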
[4] = system: SW480 colon carcinoma cells; experiment: Cell viability assay (CellTiter-Glo); conditions: Homo sapiens; for EC50: SW480, 96 h; for inhibition at 10 µM: SW480, read-out: percent inhibition at 10 μM

Structure (SMILES)	EC50 [1]	EC50 [2]	EC50 (GSK3β kinase)	EC50 [3]	EC50 (IL-6)	inhibition at 10 µM (IL-6)	EC50 (DYRK1A kinase)	EC50 [4]	inhibition at 10 µM [4]	inhibition at 10 µM [1]	inhibition at 10 µM ([2]; read-out: percentage in parentheses after EC50 >10)
CN1CCN(Cc2cccc(C(=O)Nc3cc4nc(-c5cnn(C)c5)ccc4cn3)c2)CC1 [Compound 172, N-(2-(1-Methyl-1H-pyrazol-4-yl)-1,6-naphthyridin-7-yl)-3-((4-methylpiperazin-1-yl)methyl)benzamide]	445 nM	393 nM	765 nM	214 nM	> 10 µM	32.7%	13 nM	1010 nM	–	–	–
CN1CCc2ccc(C(=O)Nc3cc4nc(-c5cnn(C)c5)ccc4cn3)cc2C1 [Compound 202, 2-Methyl-N-(2-(1-methyl-1H-pyrazol-4-yl)-1,6-naphthyridin-7-yl)-1,2,3,4-tetrahydroisoquinoline-7-carboxamide]	686 nM	530 nM	> 10000 nM	300 nM	> 10 µM	5.1%	9 nM	9310 nM	–	–	–
Cn1cc(-c2ccc3cnc(NC(=O)c4ccc5ccoc5c4)cc3n2)cn1 [Compound 209, N-(2-(1-Methyl-1H-pyrazol-4-yl)-1,6-naphthyridin-7-yl)benzofuran-6-carboxamide]	485 nM	436 nM	> 10000 nM	864 nM	> 10 µM	3.1%	5 nM	3150 nM	–	–	–
Cn1cc(-c2ccc3cnc(NC(=O)c4ccc5nccnc5c4)cc3n2)cn1 [Compound 216, N-(2-(1-Methyl-1H-pyrazol-4-yl)-1,6-naphthyridin-7-yl)quinoxaline-6-carboxamide]	447 nM	598 nM	4850 nM	378 nM	> 10 µM	0%	7 nM	3160 nM	–	–	–
Cn1cc(-c2ccc3cnc(NC(=O)c4cnn(C5CCNCC5)c4)cc3n2)cn1 [Compound 228, N-(2-(1-Methyl-1H-pyrazol-4-yl)-1,6-naphthyridin-7-yl)-1-(piperidin-4-yl)-1H-pyrazole-4-carboxamide]	76 nM	376 nM	753 nM	207 nM	0.723 µM	–	6 nM	105 nM	–	–	–
CN1CCC(n2cc(C(=O)Nc3cc4nc(-c5cnn(C)c5)ccc4cn3)cn2)CC1 [Compound 229, N-(2-(1-Methyl-1H-pyrazol-4-yl)-1,6-naphthyridin-7-yl)-1-(1-methylpiperidin-4-yl)-1H-pyrazole-4-carboxamide]	90 nM	318 nM	2900 nM	62 nM	0.859 µM	–	11 nM	122 nM	–	–	–
CC(C)OC(=O)N1CCC(n2cc(C(=O)Nc3cc4nc(-c5cnn(C)c5)ccc4cn3)cn2)CC1 [Compound 234, Isopropyl 4-(4-((2-(1-methyl-1H-pyrazol-4-yl)-1,6-naphthyridin-7-yl)carbamoyl)-1H-pyrazol-1-yl)piperidine-1-carboxylate]	124 nM	329 nM	2250 nM	26 nM	1.89 µM	–	4 nM	229 nM	–	–	–
Cn1ncc(-c2ccc3cnc(NC(=O)c4ccnc(N5CCOCC5)c4)cc3n2)c1CN1CCOCC1 [Compound 314, N-(2-(1-Methyl-5-(morpholinomethyl)-1H-pyrazol-4-yl)-1,6-naphthyridin-7-yl)-2-morpholinoisonicotinamide]	368 nM	989 nM	2610 nM	138 nM	> 10 µM	47.6%	8 nM	441 nM	–	–	–
CN(C)C1CCN(c2cc(C(=O)Nc3cc4nc(-c5cn(C)nn5)ccc4cn3)ccn2)CC1 [Compound 376, 2-(4-(Dimethylamino)piperidin-1-yl)-N-(2-(1-methyl-1H-1,2,3-triazol-4-yl)-1,6-naphthyridin-7-yl)isonicotinamide]	3420 nM	3480 nM	665 nM	1700 nM	7.96 µM	–	19 nM	1510 nM	–	–	–
CN1CCCN(c2cc(C(=O)Nc3cc4nc(-c5cn(C)nn5)ccc4cn3)ccn2)CC1 [Compound 379, 2-(4-Methyl-1,4-diazepan-1-yl)-N-(2-(1-methyl-1H-1,2,3-triazol-4-yl)-1,6-naphthyridin-7-yl)isonicotinamide]	1600 nM	2140 nM	359 nM	734 nM	2.08 µM	–	11 nM	1340 nM	–	–	–
CC(C)OCCC(=O)Nc1cc2nc(-c3cncn3C)ccc2cn1 [Compound 416, 3-Isopropoxy-N-(2-(1-methyl-1H-imidazol-5-yl)-1,6-naphthyridin-7-yl) propanamide]	386 nM	355 nM	49 nM	3300 nM	5.76 µM	–	31 nM	> 10000 nM	52.1%	–	–
CC(F)(F)CN1CCC(C(=O)Nc2cc3nc(-c4cnco4)ccc3cn2)CC1 [Compound 540, 1-(2,2-Difluoropropyl)-N-(2-(oxazol-5-yl)-1,6-naphthyridin-7-yl)piperidine-4-carboxamide]	> 10000 nM	> 10000 nM	644 nM	≥ 10000 nM	> 10 µM	3.9%	22 nM	> 10000 nM	5.3%	11.8%	50%
O=C(Nc1cc2nc(-c3cnco3)ccc2cn1)c1ccncc1 [Compound 592, N-(2-(Oxazol-5-yl)-1,6-naphthyridin-7-yl)isonicotinamide]	> 10000 nM	9 nM	> 10000 nM	449 nM	> 10 µM	25.3%	29 nM	> 10000 nM	11.7%	5%	–
O=C(Nc1cc2nc(-c3cncs3)ccc2cn1)c1ccc(OC2CCNCC2)cc1 [Compound 624, 4-(Piperidin-4-yloxy)-N-(2-(thiazol-5-yl)-1,6-naphthyridin-7-yl)benzamide]	750 nM	491 nM	2930 nM	8800 nM	3.08 µM	–	3 nM	694 nM	–	–	–
O=C(Nc1cc2nc(-c3cncs3)ccc2cn1)c1ccncc1 [Compound 625, N-(2-(Thiazol-5-yl)-1,6-naphthyridin-7-yl)isonicotinamide]	964 nM	3010 nM	8260 nM	130 nM	> 10 µM	6.5%	4 nM	> 10000 nM	47.8%	–	–
Cc1ncc(-c2ccc3cnc(NC(=O)c4ccncc4)cc3n2)s1 [Compound 641, N-(2-(2-Methylthiazol-5-yl)-1,6-naphthyridin-7-yl)isonicotinamide]	977 nM	347 nM	2560 nM	433 nM	> 10 µM	16.4%	8 nM	1680 nM	–	–	–
Cc1ncc(-c2ccc3cnc(NC(=O)c4cccnc4)cc3n2)s1 [Compound 642, N-(2-(2-Methylthiazol-5-yl)-1,6-naphthyridin-7-yl)nicotinamide]	869 nM	988 nM	3060 nM	1300 nM	> 10 µM	22.4%	6 nM	1030 nM	–	–	–
Cc1ncc(-c2ccc3cnc(NC(=O)c4ccnc(N5CCN(C)CC5)c4)cc3n2)s1 [Compound 643, 2-(4-Methylpiperazin-1-yl)-N-(2-(2-methylthiazol-5-yl)-1,6-naphthyridin-7-yl)isonicotinamide]	688 nM	1430 nM	8560 nM	≥ 10000 nM	9.22 µM	–	10 nM	803 nM	–	–	–
Nc1cncc(-c2ccc3cnc(NC(=O)c4ccc(OC5CCNCC5)cc4)cc3n2)c1 [Compound 804, N-(2-(5-Aminopyridin-3-yl)-1,6-naphthyridin-7-yl)-4-(piperidin-4-yloxy)benzamide]	289 nM	482 nM	4680 nM	104 nM	1.59 µM	–	2 nM	272 nM	–	–	–
CN1CCN(c2cc(C(=O)Nc3cc4nc(-c5ccc(N)nc5)ccc4cn3)ccn2)CC1 [Compound 807, N-(2-(6-Aminopyridin-3-yl)-1,6-naphthyridin-7-yl)-2-(4-methylpiperazin-1-yl)isonicotinamide]	484 nM	1410 nM	> 10000 nM	265 nM	4.2 µM	–	7 nM	860 nM	–	–	–
O=C(Nc1cc2nc(-c3cncc(NCC4(F)CNC4)n3)ccc2cn1)C1CC1 [Compound 871, N-(2-(6-(((3-Fluoroazetidin-3-yl)methyl)amino)pyrazin-2-yl)-1,6-naphthyridin-7-yl)cyclopropanecarboxamide]	> 10000 nM	8050 nM	360 nM	306 nM	3.42 µM	–	25 nM	> 10000 nM	33.5%	24.7%	–
